In brackets after ≈: the same amount, converted by molar mass. Like-named read-outs stand apart in the source and are kept apart here.
What was measured:
MT4 cell = assay: Cellular toxicity in uninfected MT4 cells; format: cell-based; conditions: Homo sapiens
Procedure: Toxicity of these compounds was evaluated by their ability to cause morphological changes in cells at different concentrations.
^a Inhibitory concentrations (IC50) represent the average of
triplicate determinations;
^b Concentration of the compound required to reduce the number of
viable uninfected cells by 50%; and […]

HIV-1(III B) = assay: Inhibition of cytopathogenicity of HIV-1(IIIB) in MT4 cells, cell-protection assay; format: cell-based, human immunodeficiency virus type 1 (HIV-1)
[1] = Determination of solubility in phosphate buffer (UV absorbance); format: physicochemical; conditions: for water solubility, in words: compared with AZT
Procedure: Determination of Solubility. Each compound (70 mg) listed in Table 1 was agitated in a 25-mL volumetric flask with phosphate buffer (0.10M, 5.0 mL) for 20 h.

[2] = uninfected MT4 cells, average of triplicate determinations, read-out: IC50 MT4 cell (concentration required to reduce the number of viable uninfected cells by 50%)
[3] = Human immunodeficiency virus 1, cytopathogenicity in MT4 cells, average of triplicate determinations, read-out: IC50 HIV-1(III B)
[4] = phosphate buffer (0.10M), agitated 20 h

Structure (SMILES)	IC50 (HIV-1(III B); [3]) [µg/mL]	solubility in H2 O [1, 4] [µg/mL]	water solubility, in words [1]	solubility at 20 h ([1]; 0.10 m phosphate buffer, aqueous buffer, phosphate buffer (0.10M), agitated 20 h, read-out: solubility in H2 O) [µg/mL]	IC50 (MT4 cell; [2]) [µg/mL]	IC50 (MT4 cell; MT4, read-out: IC50 MT4 cell (concentration required to reduce the number of viable uninfected cells by 50%)) [µg/mL]	IC50 (HIV-1(III B); Human immunodeficiency virus 1, MT4, read-out: IC50 HIV-1(III B)) [µg/mL]
COC(=O)[C@H](C)NP(=O)(C[C@H]1O[C@@H](n2cc(C)c(=O)[nH]c2=O)C[C@@H]1F)O[C@H]1C[C@H](n2cc(C)c(=O)[nH]c2=O)O[C@@H]1CO (stereo partly drawn) [Compound IX, (2R,4S,5R)-1-[4-Fluorotetrahydro-5-[[(3'-O-thymidinyl)(methoxy-L-alaninyl)-phosphinylidene]methyl]-2-furyl]thymine]	0.34 (≈ 0.551 µM)	8790 (≈ 14200 µM)			180 (≈ 292 µM)		
Cc1cn([C@H]2C[C@H](N=[N+]=[N-])[C@@H](CP(=O)(O)O[C@H]3C[C@H](n4cc(C)c(=O)[nH]c4=O)O[C@@H]3CO)O2)c(=O)[nH]c1=O [VIII, (2R,4S,5R)-1-[4-Azidotetrahydro-5-[(3'-O-thymidinyl-phosphinico)methyl]-2-furyl]thymine]	1.92 (≈ 3.46 µM)	3240 (≈ 5830 µM)			99.5 (≈ 179 µM)		
Cc1cn([C@H]2C[C@H](N=[N+]=[N-])[C@@H](CO)O2)c(=O)[nH]c1=O [AZT, 3'-Azido-3'-deoxythymidine, reference compound]						57.3 (≈ 214 µM)	0.02 (≈ 0.0748 µM)
COC(=O)[C@H](C)NP(=O)(C[C@H]1O[C@@H](n2cc(C)c(=O)[nH]c2=O)C[C@@H]1N=[N+]=[N-])O[C@H]1C[C@H](n2cc(C)c(=O)[nH]c2=O)O[C@@H]1CO (stereo partly drawn) [Compound X, (2R,4S,5R)-1-[4-Azidotetrahydro-5-[[(3'-O-thymidinyl)(methoxy-L-alaninyl)-phosphinylidene]methyl]-2-furyl]thymine]	0.61 (≈ 0.952 µM)	9130 (≈ 14300 µM)			200 (≈ 312 µM)		
COC(=O)[C@@H](C)NP(=O)(C[C@H]1O[C@@H](n2cc(C)c(=O)[nH]c2=O)C[C@@H]1N=[N+]=[N-])O[C@H]1C[C@H](n2cc(C)c(=O)[nH]c2=O)O[C@@H]1CO (stereo partly drawn) [Compound XII, (2R,4S,5R)-1-[4-Azidotetrahydro-5-[[(3'-O-thymidinyl)(methoxy-D-alaninyl)-phosphinylidene]methyl]-2-furyl]thymine]	0.76 (≈ 1.19 µM)	9200 (≈ 14400 µM)	higher than that of AZT		458 (≈ 714 µM)		
COC(=O)[C@@H](C)NP(=O)(C[C@H]1O[C@@H](n2cc(C)c(=O)[nH]c2=O)C[C@@H]1F)O[C@H]1C[C@H](n2cc(C)c(=O)[nH]c2=O)O[C@@H]1CO (stereo partly drawn) [Compound XI, (2R,4S,5R)-1-[4-Fluorotetrahydro-5-[[(3'-O-thymidinyl)(methoxy-D-alaninyl)-phosphinylidene]methyl]-2-furyl]thymine]	0.5 (≈ 0.81 µM)	8920 (≈ 14400 µM)			462 (≈ 748 µM)		

Further lines, with some results ahead:

IC50 (HIV-1(III B); [3]) [µg/mL]	solubility in H2 O [1, 4] [µg/mL]	water solubility, in words [1]	solubility at 20 h ([1]; 0.10 m phosphate buffer, aqueous buffer, phosphate buffer (0.10M), agitated 20 h, read-out: solubility in H2 O) [µg/mL]	Structure (SMILES)	IC50 (MT4 cell; [2]) [µg/mL]	IC50 (MT4 cell; MT4, read-out: IC50 MT4 cell (concentration required to reduce the number of viable uninfected cells by 50%)) [µg/mL]	IC50 (HIV-1(III B); Human immunodeficiency virus 1, MT4, read-out: IC50 HIV-1(III B)) [µg/mL]
11.8 (≈ 38.3 µM)	12260 (≈ 39800 µM)	higher than that of AZT		Cc1cn([C@H]2C[C@H](F)[C@@H](CP(=O)(O)O)O2)c(=O)[nH]c1=O [Compound V, 3'-Fluoro-3',5'-dideoxythymidine-5'-phosphonic acid]	98.7 (≈ 320 µM)		
> 128				Cc1cn([C@H]2C[C@H](C#N)[C@@H](CP(=O)(O)O)O2)c(=O)[nH]c1=O [IV, 3'-Cyano-3',5'-dideoxythymidine-5'-phosphonic acid]	69.9 (≈ 222 µM)		
7.68 (≈ 23.2 µM)			11100 (≈ 33600 µM)	Cc1cn([C@H]2C[C@H](N=[N+]=[N-])[C@@H](CP(=O)(O)O)O2)c(=O)[nH]c1=O [Compound VI, 3'-Azido-3',5'-dideoxythymidine-5'-phosphonic Acid]	115 (≈ 346 µM)		
3.04 (≈ 5.71 µM)	3980 (≈ 7480 µM)			Cc1cn([C@H]2C[C@H](OP(=O)(O)C[C@H]3O[C@@H](n4cc(C)c(=O)[nH]c4=O)C[C@@H]3F)[C@@H](CO)O2)c(=O)[nH]c1=O [Compound VII, (2R,4S,5R)-1-[4-Fluorotetrahydro-5-[(3'-O-thymidinyl-phosphinico)methyl]-2-furyl]thymine]	79 (≈ 148 µM)		
23.5 (≈ 81 µM)				Cc1cn([C@H]2CC[C@@H](CP(=O)(O)O)O2)c(=O)[nH]c1=O [III, 3',5'-Dideoxythymidine-5'-phosphonic acid]	128 (≈ 443 µM)		
